Consider three molecules from paper PMC4712073 (Analytical and bioanalytical chemistry, 2015).

Assay [1] addresses T1, SIRT5 (Homo sapiens, UniProt Q9NXA8).
T1 sequence (Q9NXA8 37-310): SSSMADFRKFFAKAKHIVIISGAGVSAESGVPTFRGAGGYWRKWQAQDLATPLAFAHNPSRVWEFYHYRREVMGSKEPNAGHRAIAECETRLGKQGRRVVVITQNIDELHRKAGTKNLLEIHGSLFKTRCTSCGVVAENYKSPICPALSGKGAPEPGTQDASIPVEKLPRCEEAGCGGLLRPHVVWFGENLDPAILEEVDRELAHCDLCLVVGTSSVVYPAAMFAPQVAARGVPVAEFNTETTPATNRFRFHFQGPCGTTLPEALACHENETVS
The assay is described as follows: Peptide-based SIRT5 desuccinylation assay by droplet microchip electrophoresis. In kind it is biochemical.

Assay [2] addresses T1, SIRT5. The note with it: reported as SIRT5 inhibitor; cited from earlier work.

Read-outs that look alike come from different tables or passages of the source.

For `CCCCCCCCCCCCCCCc1cccc(O)c1C(=O)O` [anacardic acid], the “SIRT5 inhibition (in words)” value at SIRT5 [1] (pilot screening, chosen as positive control (10 µM)) is “potent inhibitor”.

For orientation: IC50 means the concentration that inhibits the measured activity by half. For `CCCCCC[C@H]1C(=O)O[C@H](C)[C@H](NC(=O)c2cccc(NC=O)c2O)C(=O)O[C@@H](C)[C@@H]1OC(=O)CC(C)C` [antimycin A], the IC50 entry against SIRT5 [1] (Prestwick hits, dose-response analysis 0.1 to 100 µM) is reported as “near the maximum tested dose”.

With `N#C/C(=C\c1ccc(-c2cc(Cl)ccc2Cl)o1)C(=O)Nc1cccc2ncccc12` [AGK-2], the concentration for half-maximal inhibition (IC50) on SIRT5 [2] was above 100 µM.
